The values that follow come from publication PMC6627374, “Effects of the Pentapeptide P33 on Memory and Synaptic Plasticity in APP/PS1 Transgenic Mice: A Novel Mechanism Presenting the Protein Fe65 as a Target” (International Journal of Molecular Sciences, 2019).

In this assay the target is T1, Fe65-WW domain (WW domain of Fe65) (Homo sapiens, UniProt O00213).
T1 construct: made in house; host or cells: chemical solid-phase peptide synthesis (Fmoc, Rink Amide AM resin); no expression host
T1 sequence (O00213 253-285 limits assumed): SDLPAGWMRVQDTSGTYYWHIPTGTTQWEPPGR
Description: ITC binding to Fe65-WW. Set-up: species or system human and mouse (WW domain identical). Particulars: 310 K, PBS pH 7.4, Fe65-WW 83.5 μM in cell, PPPPP 1.056 mM in syringe (control). As for the experimental part: Synthesis of acetyl-Fe65-WW, acetyl-Pin1-WW, and the control PPPPP (structures involved in Figure 2) was carried out on a Rink Amide AM (0.3 mmol∙g^−1) resin using Fmoc chemistry and activation with HATU in the presence of DIPEA. Cleavage was achieved by a treatment with TFA/H2O/triisopropylsilane/1,4-dithio-DL-threitol/phenol (90:5:3:1:1) at room temperature (RT). TFA was removed in vacuo, the peptides were then precipitated using cold, dry diethyl-ether, dissolved in ACN/H2O and lyophilized.
Isothermal titrations were performed using a Microcal VP-ITC (Malvern Instruments, Malvern, UK) microcalorimeter. Binding experiments were carried out in degassed phosphate-buffered saline (PBS) at pH 7.4. The concentrations of Fe65-WW and Pin1-WW were normalized for the peptide contents. In one titration experiment, 10-μL portions of the ligand-containing solution (P33 or PPPPP) were injected from a computer-controlled 300-μL microsyringe at intervals of 300 s into the solution of the WW domain (Fe65-WW or Pin1-WW), dissolved in the same buffer as for the ligand. The rev of the microsyringe was set to 307 rpm. Measurements were repeated twice at 310 K. The starting concentrations of Fe65-WW and Pin1-WW in the cell were 83.5 and 81.4 μM, respectively, and the concentrations of the stock solutions containing P33 or PPPPP in the syringe were 1.006 and 1.056 mM, respectively. Control experiments were performed by injecting P33 or PPPPP into the cell containing plain buffer without the WW domain, with results achieved via subtracting the dilution heats from those measured in the presence of the WW domain.

For the substance “PPPPP [control pentapeptide PPPPP, reference compound]”, the “binding to Fe65-WW (in words)” value was “no binding between the Fe65-WW and the pentapeptide could be observed”.
